Patent publication US10065934B2, “Substituted urea derivatives and pharmaceutical uses thereof” (SUNSHINE LAKE PHARMA CO., LTD., priority 2014, dated 2018)
Where two headings read alike, the source gives them in different places. Blank lines part the entries; values can stand above or below the compound they belong to.

Assays:
MV-4-11 cell = test: In vitro cytology inhibitory activity (MV-4-11 cell proliferation, cell viability luminescence); type: cell-based; conditions: Homo sapiens, MV4-11; MV-4-11 cells, 72 h incubation
Procedure: Cell assay condition was shown below:
a. A complete medium was prepared and mixed well. b. Cell was recovered, and cell lines of between about two generations in good condition of growth were selected. c. The cell culture flasks were removed from the incubator, and the labeled cell name on the bottles, culture medium type and cell algebra were checked. d. The cell suspension was pipette into a centrifuge tube, and centrifuged at 800-1000 rpm for 3-5 minutes. e. Cell supernatant of the centrifuge tube was aspirated. f. Appropriate volume of culture medium was added into the centrifuge tube, and the cells were resuspended by gentle pipetting uniform. g. Vi-Cell XR cytometer was used for count. h. The cell suspension was adjusted to the appropriate concentration. i. The cell suspension was added to the bottom wall of the white 96-well plate, 100 microliters/well. Cells name, kind of board density and date were detailed labeled, and the culture plate was placed in CO2 incubator overnight.
2. Preparation and Addition of the Test Compounds
i) Preparation of test compound plates by diluting to 10 concentrations with DMSO: first, the test compound stock solution was prepared by dissolving a weighed compound in DMSO to a concentration of 10 mM, and then diluted to the concentration of 4 mM, which was then diluted to the concentration of 0.4 mM used as the highest concentration for testing with DMSO. The highest concentration was sequentially followed by 3-fold dilution for a total of 10 concentrations. Staurosporine was the positive control drug. ii) Addition of test compounds: a. 0.5 μL of test compound prepared above in compound plate was added into the cell culture plate that had been incubated overnight. Then the culture plate was incubated in an incubator at 37° C. for 72 hours.
3. Detection and Analysis
a. 72 hours after the compound treatment, cells was observed under an inverted microscope morphology, and cell growth state in DMSO control well was normal, there was no contamination. b. The cell culture plate was placed in equilibrium at room temperature for 30 minutes. c. The cell viability detection reagent at 100 μL/well was placed into culture plate. d. The mixture in culture plate was mixed two minutes in the vibration plate machine to induce cell lysis. e. 96-well plate was placed for 10 minutes at room temperature, making it stable luminescent signal. f. White base film was pasted on the bottom of the culture plate, and the plate was tested by using Flexstation3 (related to: light, integration time 500 ms). g. Experimental results were recorded and analyzed.

FLT3 kinase = target: T1, FLT3 kinase (Homo sapiens, UniProt P36888); test: In vitro enzymatic inhibitory activity (kinase reaction, FAM-labeled peptide); type: biochemical; conditions: in vitro enzymatic inhibition
T1 sequence (P36888 27-993): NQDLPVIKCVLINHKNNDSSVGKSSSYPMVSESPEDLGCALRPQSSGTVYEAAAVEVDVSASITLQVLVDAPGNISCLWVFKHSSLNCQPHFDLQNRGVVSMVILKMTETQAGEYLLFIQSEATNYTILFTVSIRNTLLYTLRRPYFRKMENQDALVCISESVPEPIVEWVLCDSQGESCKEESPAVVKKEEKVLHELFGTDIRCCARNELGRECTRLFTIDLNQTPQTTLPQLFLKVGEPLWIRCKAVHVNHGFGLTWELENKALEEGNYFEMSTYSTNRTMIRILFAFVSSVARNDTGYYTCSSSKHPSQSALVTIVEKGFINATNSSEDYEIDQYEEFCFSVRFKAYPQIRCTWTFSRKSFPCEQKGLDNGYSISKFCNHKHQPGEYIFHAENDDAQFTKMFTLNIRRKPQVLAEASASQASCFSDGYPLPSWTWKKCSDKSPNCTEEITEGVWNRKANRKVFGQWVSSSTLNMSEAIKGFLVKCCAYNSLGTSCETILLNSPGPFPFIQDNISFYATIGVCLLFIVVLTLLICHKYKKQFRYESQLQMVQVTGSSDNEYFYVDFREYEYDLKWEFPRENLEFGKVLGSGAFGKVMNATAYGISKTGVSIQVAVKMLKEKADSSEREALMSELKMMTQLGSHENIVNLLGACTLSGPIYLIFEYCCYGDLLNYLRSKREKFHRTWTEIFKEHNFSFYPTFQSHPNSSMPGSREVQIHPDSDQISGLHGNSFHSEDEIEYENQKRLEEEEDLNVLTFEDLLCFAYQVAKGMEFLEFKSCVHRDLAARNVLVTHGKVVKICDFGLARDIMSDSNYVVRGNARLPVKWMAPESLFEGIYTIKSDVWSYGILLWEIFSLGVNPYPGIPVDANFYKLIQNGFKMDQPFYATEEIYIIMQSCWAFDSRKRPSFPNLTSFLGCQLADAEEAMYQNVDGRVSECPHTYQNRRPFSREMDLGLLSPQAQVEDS

[1] = Evaluation of pharmacokinetic activity in male SD rats (iv and oral); type: in vivo; conditions: rat, plasma; for Cmax: read-out: Cmax
Procedure: 1. Preparation of the Test Compound Solutions
The test compound solutions were prepared using appropriate amounts of 5% DMSO, 5% KolliphorHS15 and 90% Saline to dissolve each compound completely.
140-190 g male SD rats were randomly divided into two groups. One group was administered through intravenous drug delivery with the dosage of 1.0 or 2.0 mg/kg, and the other group was administered by oral with the dosage of 5.0 mg/kg. For intravenous administration, caudal vein blood samples at the time points of 0.0833, 0.25, 0.5, 1.0, 2.0, 4.0, 6.0, 8.0 and 24 h were collected after drug administration (the time point of drug administration was set as 0 h); and for oral administration, caudal vein blood samples at the time points of 0.25, 0.5, 1.0, 2.0, 4.0, 6.0, 8.0 and 24 h were collected after drug administration (the time point of drug administration was set as 0 h). Appropriate range of standard curve was established according to the sample concentration, and the test compound concentrations in plasma sample were measured by LC-MS/MS analysis. Pharmacokinetic parameters were calculated by non-compartmental method using WinNonLin 6.3 software based on drug concentration-time curves.

SMILES: CC(C)(C)c1cc(NC(=O)Nc2ccc(C#Cc3ccc(OCCCN4CCOCC4)nc3)cc2)no1 [Example 17, 1-(5-(tert-Butyl)isoxazol-3-yl)-3-(4-((6-(3-morpholinopropoxy)pyridin-3-yl)ethynyl)phenyl) urea]
IC50 (MV-4-11 cell): 11.7 nM

SMILES: CC(C)(C)c1cc(NC(=O)Nc2ccc(C#Cc3ccc(OCCCN4C[C@@H]5OCCO[C@@H]5C4)cc3)cc2)no1 [Example 11, 1-(5-(tert-butyl)isoxazol-3-yl)-3-(4-((4-(3-((4aR,7aS)-tetrahydro-2H-[1,4]dioxino[2,3-c]pyrrol-6(3H)-yl)propoxy)phenyl)ethynyl)phenyl)urea]
IC50 (FLT3 kinase): 169 nM

SMILES: CC(C)(C)c1cc(NC(=O)Nc2ccc(C#Cc3ccc(OCCCN4CCOCC4)cc3)cc2F)no1 [Example 81, 1-(5-(tert-Butyl)isoxazol-3-yl)-3-(2-fluoro-4-((4-(3-morpholinopropoxy)phenyl)ethynyl)phenyl)urea]
IC50 (MV-4-11 cell): 4.7 nM

SMILES: CC(C)(C)c1cc(NC(=O)Nc2ccc(C#Cc3ccc(OCCCN4CCC5(COC5)C4)cc3)cc2)no1 [Example 19, 1-(4-((4-(3-(2-Oxa-6-azaspiro[3.4]octan-6-yl)propoxy)phenyl)ethynyl)phenyl)-3-(5-(tert-butyl)isoxazol-3-yl)urea]
IC50 (MV-4-11 cell): 13.8 nM

SMILES: CC(C)(C)c1cc(NC(=O)Nc2ccc(C#Cc3cnc4c(OCCN5CCOCC5)ccnn34)cc2)no1 [Example 9, 1-(5-(tert-Butyl)isoxazol-3-yl)-3-(4-((8-(2-morpholinoethoxy)imidazo[1,2-b]pyridazin-3-yl)ethynyl)phenyl)urea]
AUC(0-inf) ([1]; iv, 1 mg/kg): 1390 ng·h/mL
AUC(0-t) ([1]; iv, 1 mg/kg): 1330 ng·h/mL
Tmax ([1]; iv, 1 mg/kg): 0.083 h
half-life ([1]; iv, 1 mg/kg): 102 min
Cmax ([1]; iv, 1 mg/kg): 793 ng/mL
Vd ([1]; iv, 1 mg/kg, read-out: Vss): 1.62 L/kg
bioavailability ([1]; po 5 mg/kg vs iv 1 or 2 mg/kg): 116%
AUC(0-inf) ([1]; po, 5 mg/kg): 8030 ng·h/mL
AUC(0-t) ([1]; po, 5 mg/kg): 8010 ng·h/mL
Tmax ([1]; po, 5 mg/kg): 2.67 h
half-life ([1]; po, 5 mg/kg): 171 min
Cmax ([1]; po, 5 mg/kg): 1090 ng/mL

SMILES: CC(C)(C)c1cc(NC(=O)Nc2ccc(C#Cc3ccc(OCCCN4CCOCC4)c(O)c3)cc2)no1 [Example 86, 1-(5-(tert-Butyl)isoxazol-3-yl)-3-(4-((3-hydroxy-4-(3-morpholinopropoxy)phenyl)ethynyl)phenyl)urea]
IC50 (MV-4-11 cell): 0.9 nM

SMILES: CC(C)(C)c1cc(NC(=O)Nc2ccc(C#Cc3cnc4ccc(OCCCN5CCOCC5)nn34)cc2)no1 [Example 7, 1-(5-(tert-Butyl)isoxazol-3-yl)-3-(4-((6-(3-morpholinopropoxy)imidazo[1,2-b]pyridazin-3-yl)ethynyl)phenyl)urea]
IC50 (MV-4-11 cell): 3.2 nM

SMILES: COc1cc(C#Cc2ccc(NC(=O)Nc3cc(C(C)(C)C)on3)cc2)ccc1OCCCN1CCOCC1 [Example 20, 1-(5-(tert-Butyl)isoxazol-3-yl)-3-(4-((3-methoxy-4-(3-morpholinopropoxy)phenyl)ethynyl)phenyl)urea]
IC50 (FLT3 kinase): 110 nM

SMILES: CC(C)(C)c1cc(NC(=O)Nc2ccc(C#Cc3ccc(OCCCN4CCOCC4)c(C(F)(F)F)c3)cc2)no1 [Example 3, 1-(5-(tert-Butyl)isoxazol-3-yl)-3-(4-((4-(3-morpholinopropoxy)-3-(trifluoromethyl)phenyl)ethynyl)phenyl)urea]
IC50 (FLT3 kinase): 62 nM

SMILES: CC(C)(C)c1cc(NC(=O)Nc2ccc(C#Cc3ccc(OCCCN4CCOCC4)cc3)cc2O)no1 [Example 87, 1-(5-(tert-butyl)isoxazol-3-yl)-3-(2-hydroxy-4-((4-(3-morpholinopropoxy)phenyl)ethynyl)phenyl)urea]
IC50 (MV-4-11 cell): 25.5 nM

SMILES: CC(C)(C)c1cc(NC(=O)Nc2ccc(C#Cc3cnn4c(OCCCN5CCOCC5)ccnc34)cc2)no1 [Example 15, 1-(5-(tert-Butyl)isoxazol-3-yl)-3-(4-((7-(3-morpholinopropoxy)pyrazolo[1,5-a]pyrimidin-3-yl)ethynyl)phenyl)urea]
IC50 (FLT3 kinase): 102 nM

More lines, now with the values ahead:

IC50 (MV-4-11 cell): 1.8 nM
SMILES: CC(C)(CO)c1cc(NC(=O)Nc2ccc(C#Cc3ccc(OCCC[N+]4([O-])CCOCC4)cc3)cc2)no1 [Example 88, 4-(3-(4-((4-(3-(5-(1-Hydroxy-2-methylpropan-2-yl)isoxazol-3-yl)ureido)phenyl)ethynyl)phenoxy)propyl)morpholine 4-oxide]

IC50 (MV-4-11 cell): 2.1 nM
SMILES: CC(C)(CO)c1cc(NC(=O)Nc2ccc(C#Cc3ccc(OCCCN4CCOCC4)cc3)cc2)no1 [Example 84, 1-(5-(1-Hydroxy-2-methylpropan-2-yl)isoxazol-3-yl)-3-(4-((4-(3-morpholinopropoxy)phenyl)ethynyl)phenyl)urea]

IC50 (FLT3 kinase): 189 nM
SMILES: CC(C)(C)c1cc(NC(=O)Nc2ccc(C#Cc3ccc(OCCCN4CCOCC4)cc3Cl)cc2)no1 [Example 5, 1-(5-(tert-Butyl)isoxazol-3-yl)-3-(4-((2-chloro-4-(3-morpholinopropoxy)phenyl)ethynyl)phenyl)urea]

IC50 (MV-4-11 cell): 2.8 nM
SMILES: CC(C)(C)c1cc(NC(=O)Nc2ccc(C#Cc3ccc(OCCCN4CCOCC4)cc3)cc2)no1 [Example 21, 1-(5-(tert-Butyl)isoxazol-3-yl)-3-(4-((4-(3-morpholinopropoxy)phenyl)ethynyl)phenyl)urea]

IC50 (MV-4-11 cell): 3 nM
SMILES: CC(C)(C)c1cc(NC(=O)Nc2ccc(C#Cc3ccc(OCCC[N+]4([O-])CCOCC4)cc3)cc2)no1 [Example 82, 4-(3-(4-((4-(3-(5-(tert-Butyl)isoxazol-3-yl)ureido)phenyl)ethynyl)phenoxy)propyl)morpholine 4-oxide]

IC50 (MV-4-11 cell): 1.6 nM
SMILES: CC(C)(CO)c1cc(NC(=O)Nc2ccc(C#Cc3ccc(OCCCN4CCOCC4)cc3F)cc2)no1 [Example 85, 1-(4-((2-Fluoro-4-(3-morpholinopropoxy)phenyl)ethynyl)phenyl)-3-(5-(1-hydroxy-2-methylpropan-2-yl)isoxazol-3-yl)urea]

IC50 (MV-4-11 cell): 2.3 nM
SMILES: CC(C)(C)c1cc(NC(=O)Nc2ccc(C#Cc3ccc(OCCC[N+]4([O-])CCOCC4)cc3F)cc2)no1 [Example 83, 4-(3-(4-((4-(3-(5-(tert-Butyl)isoxazol-3-yl)ureido)phenyl)ethynyl)-3-fluorophenoxy)propyl) morpholine 4-oxide]

IC50 (MV-4-11 cell): 4.8 nM
SMILES: CC(C)(CO)c1cc(NC(=O)Nc2ccc(C#Cc3ccc(OCCC[N+]4([O-])CCOCC4)cc3F)cc2)no1 [Example 89, 4-(3-(3-Fluoro-4-((4-(3-(5-(1-hydroxy-2-methylpropan-2-yl)isoxazol-3-yl)ureido)phenyl)ethynyl)phenoxy)propyl)morpholine 4-oxide]
